This note sets out measurements from patent publication US8906925B2, “Pyrido[4,3-B]indoles containing rigid moieties” (Medivation Technologies, Inc., priority 2008, dated 2014).

Read-outs that look alike come from different tables or passages of the source.

One test deals with histamine receptor H1 (Homo sapiens, UniProt P35367). The test is described as follows: Histamine H1 radioligand binding ([3H]Pyrilamine). As to conditions: for inhibition at 1 µM: read-out: Histamine Binding (1 μM) H1, percent inhibition of specific binding, 1 μM. In short, it runs like this: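 Values are percent inhibition of specific [3H]pyrilamine (1.2 nM) binding with compounds at ≤1 μM (1% DMSO vehicle); 180 min incubation at 25 °C, pH 7.4 Tris buffer, on CHO-expressed human H1 receptor; 1 μM pyrilamine defined nonspecific binding, bound ligand counted after filtration.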

Test [1] addresses T1, human recombinant histamine H2 receptor (Homo sapiens, UniProt P25021).
T1 construct: expressed in transfected cells; host or cells: Chinese hamster ovary (CHO) K1 cells
The test is described as follows: Histamine H2 radioligand binding ([125I]Aminopotentidine). As to conditions: read-out: Histamine Binding (1 μM) H2, percent inhibition of specific binding, 1 μM. On the procedure:
To evaluate in radioligand binding assays the activity of compounds of the invention, human recombinant histamine H2 receptor expressed in Chinese hamster ovary (CHO) K1 cells (Ruat, M., Proc. Natl. Acad. Sci. USA. 87(5):1658, 1990) in a 50 mM Phosphate buffer, pH 7.4 was used. Compounds of the invention were incubated with 0.1 nM [^125I]Aminopotentidine for 120 min. at 25° C. Non-specific binding was estimated in the presence of 3 μM Tiotidine. Receptor proteins were filtered and washed, the filters were then counted to determine [^125I]Aminopotentidine specifically bound.

Test [2] addresses T2, human recombinant serotonin (5-Hydroxytryptamine) 5-HT2A receptor (Homo sapiens, UniProt P28223).
T2 construct: expressed in transfected cells; host or cells: Chinese hamster ovary (CHO-K1) cells
The test is described as follows: Serotonin 5-HT2A radioligand binding ([3H]Ketanserin). As to conditions: for inhibition at 0.1 µM: read-out: Inhibition of ligand binding, Serotonin 5-HT2A (percent inhibition of specific binding), compound at 0.1 μM; for inhibition at 1 µM: read-out: Inhibition of ligand binding, Serotonin 5-HT2A (percent inhibition of specific binding), compound at 1 μM. The protocol:
Compounds of the invention were incubated with 0.5 nM [^3H]Ketanserin for 60 min. at 25° C. Non-specific binding was estimated in the presence of 1 μM Mianserin. Receptor proteins were filtered and washed, the filters were then counted to determine [^3H]Ketanserin specifically bound.

Test [3] concerns the target human dopamine D2L receptor (Homo sapiens, UniProt P14416). The test can be described thus: Dopamine D2L radioligand binding ([3H]Spiperone). The conditions noted are these: compound at 1 μM. The source says: Non-specific binding was estimated in the presence of […] Haloperidol. Receptor proteins were filtered and washed, the filters were then counted to determine [^3H]Spiperone specifically bound. […] Biochemical assay results are presented as the percent inhibition of specific binding in Table 9.

In test [4] the target is human recombinant serotonin (5-Hydroxytryptamine) 5-HT7 receptor (Homo sapiens, UniProt P34969). The test can be described thus: Serotonin 5-HT7 radioligand binding ([3H]LSD). The conditions noted are these: read-out: Inhibition of ligand binding, Serotonin 5-HT7 (percent inhibition of specific binding); for inhibition at 0.1 µM: compound at 0.1 μM; for inhibition at 1 µM: compound at 1 μM. From the text: Receptor proteins were filtered and washed, the filters were then counted to determine [^3H]LSD specifically bound.

Test [5] deals with T3, human recombinant serotonin (5-Hydroxytryptamine) 5-HT2C receptor (Homo sapiens, UniProt P28335).
T3 construct: expressed in transfected cells; host or cells: Chinese hamster ovary (CHO-K1) cells
T3 sequence (P28335 33-458): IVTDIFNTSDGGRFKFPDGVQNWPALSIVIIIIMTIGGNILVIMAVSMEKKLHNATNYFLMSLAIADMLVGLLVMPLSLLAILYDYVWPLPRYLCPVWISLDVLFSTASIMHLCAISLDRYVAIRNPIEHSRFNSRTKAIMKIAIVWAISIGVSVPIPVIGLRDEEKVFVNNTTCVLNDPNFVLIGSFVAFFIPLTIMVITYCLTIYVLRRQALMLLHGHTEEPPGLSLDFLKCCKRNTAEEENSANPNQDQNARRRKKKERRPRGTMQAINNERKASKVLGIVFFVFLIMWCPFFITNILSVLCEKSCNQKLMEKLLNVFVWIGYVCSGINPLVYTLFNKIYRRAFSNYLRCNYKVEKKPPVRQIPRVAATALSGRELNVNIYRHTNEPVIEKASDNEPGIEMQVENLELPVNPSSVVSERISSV
The test can be described thus: Serotonin 5-HT2C radioligand binding ([3H]Mesulergine). As to conditions: read-out: Inhibition of ligand binding, Serotonin 5-HT2C (percent inhibition of specific binding); for inhibition at 0.1 µM: compound at 0.1 μM; for inhibition at 1 µM: compound at 1 μM. The gist of the method:
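Compounds tested at 1 μM or lower (1% DMSO vehicle) for displacement of 1 nM [3H]Mesulergine over 60 min at 25° C. Specific binding determined by filtration counting, with 1 μM Mianserin defining non-specific binding; values are percent inhibition.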

For test [6], the target named is T4, human recombinant serotonin (5-Hydroxytryptamine) 5-HT6 receptor (Homo sapiens, UniProt P50406).
T4 construct: expressed in transfected cells; host or cells: human HeLa cells
The test is described as follows: Serotonin 5-HT6 radioligand binding ([3H]LSD). The conditions noted are these: read-out: Inhibition of ligand binding, Serotonin 5-HT6 (percent inhibition of specific binding); for inhibition at 0.1 µM: compound at 0.1 μM; for inhibition at 1 µM: compound at 1 μM. On the procedure: Compounds of the invention were incubated with 1.5 nM [3H]Lysergic acid diethylamide (LSD) for 120 min. at 37° C. […] Receptor proteins were filtered and washed, the filters were then counted to determine [3H]LSD specifically bound. Compounds were screened at 1 μM or lower, using 1% DMSO as vehicle. Biochemical assay results are presented as the percent inhibition of specific binding in Table 10.

Where [7] appears, read: percent inhibition of specific binding, read-out: Inhibition of ligand binding, Dopamine D2L.
The mark [8] stands for this setting: […] [3H]Spiperone, read-out: Inhibition of ligand binding, Dopamine D2L (percent inhibition of specific binding).

Chain of histamine receptor H1 (P35367 whole entry): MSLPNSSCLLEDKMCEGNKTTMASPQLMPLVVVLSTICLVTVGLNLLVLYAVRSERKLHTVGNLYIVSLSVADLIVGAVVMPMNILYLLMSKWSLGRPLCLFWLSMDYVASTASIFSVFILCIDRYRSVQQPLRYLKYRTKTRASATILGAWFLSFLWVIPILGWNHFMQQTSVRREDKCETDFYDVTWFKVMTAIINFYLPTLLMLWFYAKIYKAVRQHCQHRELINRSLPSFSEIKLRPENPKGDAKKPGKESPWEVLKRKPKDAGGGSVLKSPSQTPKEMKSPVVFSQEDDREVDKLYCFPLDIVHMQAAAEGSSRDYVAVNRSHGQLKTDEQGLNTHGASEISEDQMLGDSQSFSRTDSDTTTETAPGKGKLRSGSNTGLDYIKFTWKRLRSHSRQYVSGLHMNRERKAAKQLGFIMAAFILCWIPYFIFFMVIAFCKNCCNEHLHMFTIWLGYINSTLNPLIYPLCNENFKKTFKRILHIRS
Chain of human recombinant serotonin (5-Hydroxytryptamine) 5-HT7 receptor (P34969 whole entry): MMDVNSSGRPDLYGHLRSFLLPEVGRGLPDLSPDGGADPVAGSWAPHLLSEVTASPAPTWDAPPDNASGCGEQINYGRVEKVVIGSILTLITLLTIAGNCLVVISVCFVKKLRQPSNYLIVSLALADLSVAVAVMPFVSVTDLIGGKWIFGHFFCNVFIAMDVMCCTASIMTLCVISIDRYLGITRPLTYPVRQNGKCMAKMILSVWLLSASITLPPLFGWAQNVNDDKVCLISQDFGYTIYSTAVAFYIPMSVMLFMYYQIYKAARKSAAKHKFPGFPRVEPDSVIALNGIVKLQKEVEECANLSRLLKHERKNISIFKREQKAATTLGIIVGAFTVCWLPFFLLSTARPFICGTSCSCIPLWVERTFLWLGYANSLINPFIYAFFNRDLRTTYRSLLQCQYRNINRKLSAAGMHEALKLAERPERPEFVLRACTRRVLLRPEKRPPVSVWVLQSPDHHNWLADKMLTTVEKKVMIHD
T4 sequence (P50406 whole entry): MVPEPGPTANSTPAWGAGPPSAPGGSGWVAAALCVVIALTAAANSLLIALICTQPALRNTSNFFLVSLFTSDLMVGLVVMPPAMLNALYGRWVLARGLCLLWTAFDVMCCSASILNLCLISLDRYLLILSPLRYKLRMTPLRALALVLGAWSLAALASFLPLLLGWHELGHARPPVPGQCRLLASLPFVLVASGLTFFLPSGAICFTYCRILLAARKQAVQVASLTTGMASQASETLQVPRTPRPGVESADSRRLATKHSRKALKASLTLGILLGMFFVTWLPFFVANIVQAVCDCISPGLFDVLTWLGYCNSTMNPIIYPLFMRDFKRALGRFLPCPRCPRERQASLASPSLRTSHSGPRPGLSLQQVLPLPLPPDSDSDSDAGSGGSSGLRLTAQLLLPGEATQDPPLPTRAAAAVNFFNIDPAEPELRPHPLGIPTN
Chain of human dopamine D2L receptor (P14416 whole entry): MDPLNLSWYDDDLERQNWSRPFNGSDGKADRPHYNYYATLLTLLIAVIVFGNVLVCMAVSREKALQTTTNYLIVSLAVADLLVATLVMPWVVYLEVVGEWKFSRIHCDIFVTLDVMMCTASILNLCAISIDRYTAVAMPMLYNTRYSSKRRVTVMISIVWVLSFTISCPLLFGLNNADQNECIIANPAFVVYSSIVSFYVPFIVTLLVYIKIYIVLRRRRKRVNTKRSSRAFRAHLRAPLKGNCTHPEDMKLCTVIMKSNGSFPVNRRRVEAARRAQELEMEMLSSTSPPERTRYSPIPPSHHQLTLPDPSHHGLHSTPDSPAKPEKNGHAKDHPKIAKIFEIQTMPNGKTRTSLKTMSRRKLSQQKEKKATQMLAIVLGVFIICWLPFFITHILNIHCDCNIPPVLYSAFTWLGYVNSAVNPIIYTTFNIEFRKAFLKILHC
T2 sequence (P28223 whole entry): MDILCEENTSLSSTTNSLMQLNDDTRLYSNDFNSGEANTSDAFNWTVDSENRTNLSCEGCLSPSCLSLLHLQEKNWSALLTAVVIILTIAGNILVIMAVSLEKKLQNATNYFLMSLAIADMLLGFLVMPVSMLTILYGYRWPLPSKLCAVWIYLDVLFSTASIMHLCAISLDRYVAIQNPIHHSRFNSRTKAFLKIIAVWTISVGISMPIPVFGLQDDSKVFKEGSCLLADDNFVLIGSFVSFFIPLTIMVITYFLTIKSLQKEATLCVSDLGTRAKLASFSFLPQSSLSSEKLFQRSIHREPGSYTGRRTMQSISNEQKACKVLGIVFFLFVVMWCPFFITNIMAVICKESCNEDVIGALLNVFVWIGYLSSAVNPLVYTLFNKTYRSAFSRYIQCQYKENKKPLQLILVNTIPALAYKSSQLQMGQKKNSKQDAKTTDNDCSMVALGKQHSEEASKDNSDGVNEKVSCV
T1 sequence (P25021 whole entry): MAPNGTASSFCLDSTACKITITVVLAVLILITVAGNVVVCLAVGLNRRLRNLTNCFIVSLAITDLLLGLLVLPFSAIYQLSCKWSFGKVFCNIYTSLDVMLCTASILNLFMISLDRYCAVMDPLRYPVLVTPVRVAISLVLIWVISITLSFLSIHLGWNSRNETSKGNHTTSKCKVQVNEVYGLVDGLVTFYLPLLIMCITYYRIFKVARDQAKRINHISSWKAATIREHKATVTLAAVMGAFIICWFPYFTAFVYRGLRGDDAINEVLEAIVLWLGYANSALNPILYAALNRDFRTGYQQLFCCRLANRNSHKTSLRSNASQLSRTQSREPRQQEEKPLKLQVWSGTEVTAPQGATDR

On to `C/C(=C\n1c2c(c3cc(F)ccc31)CN(C)CC2)c1ccncc1` [Compound 216, (E)-8-fluoro-2-methyl-5-(2-(pyridin-4-yl)prop-1-enyl)-2,3,4,5-tetrahydro-1H-pyrido[4,3-b]indole], for which the “Histamine Binding (1 μM) H1, percent inhibition of specific binding” value on histamine receptor H1 (1 μM) came to 49%. The inhibition at 1 µM on histamine receptor H1 is 47%; in test [1] it was 61%; in test [2], 99%; in test [3] (setting [7]) it was 97%; in test [4], 79%; in test [5] it was 94%. Moreover, the inhibition at 1 µM in test [6] worked out at 104%. Also, the inhibition at 0.1 µM in test [2] is 98%; in test [4], 66%; in test [5], 83%; in test [6] it was 100%. Further, in test [3] (percent inhibition of specific binding, 1 µM), the “Inhibition of ligand binding, Dopamine D2L” value amounted to 98%.
`CN1CCc2c(c3cc(Cl)ccc3n2CC(O)c2ccncc2)C1` (centres unmarked) [Compound 183, 2-(8-chloro-2-methyl-3,4-dihydro-1H-pyrido[4,3-b]indol-5(2H)-vyl)-1-(pyridin-4-yl)ethanol]: the inhibition at 1 µM at histamine receptor H1 was 91%; in test [1] it was 47%; in test [2] it was 82%; in test [3] (setting [7]), 15%; in test [4] it was 74%; in test [5], 78%. Further, the inhibition at 1 µM in test [6] was determined as 72%.
On to `C=C(Cn1c2c(c3cccc(Cl)c31)CN(C)CC2)c1ccc(F)cc1` [Compound No. 354, 6-chloro-5-(2-(4-fluorophenyl)allyl)-2-methyl-2,3,4,5-tetrahydro-1H-pyrido[4,3-b]indole], for which the inhibition at 1 µM at histamine receptor H1 worked out at 86%; in test [1] it was 97%; in test [2], 100%; in test [3] (setting [8]) it was 98%; in test [4], 75%; in test [5], 101%. For the same compound, the inhibition at 1 µM in test [6] came to 103%.
Consider `C/C(=C\n1c2c(c3c(Cl)c(Cl)ccc31)CN(C)CC2)c1ccncc1` [Compound 245, (E)-8,9-dichloro-2-methyl-5-(2-(pyridin-4-yl)prop-1-enyl)-2,3,4,5-tetrahydro-1H-pyrido[4,3-b]indole], for which the inhibition at 1 µM was 60% on histamine receptor H1; 71% in test [1]; 102% in test [2]; 92% in test [3] (setting [7]); 74% in test [4]; 96% in test [5]. Also, the inhibition at 1 µM in test [6] was found to be 103%.
As to `CN1CCc2c(c3cc(F)ccc3n2CC(C)(O)c2ccncc2)C1` (centres unmarked) [Compound 181, 1-(8-fluoro-2-methyl-3,4-dihydro-1H-pyrido[4,3-b]indol-5(2H)-yl)-2-(pyridin-4-yl)propan-2-ol], the inhibition at 1 µM came to 0% on histamine receptor H1; 25% in test [1]; 77% in test [2]; 8% in test [3] (setting [7]); 30% in test [4]; 80% in test [5]. For the same compound, the inhibition at 1 µM in test [6] was 32%.
For the compound `Cc1ccc(C#Cn2c3c(c4cc(Cl)ccc42)CN(C)CC3)cn1` [Compound No. 484, 8-chloro-2-methyl-5-((6-methylpyridin-3-yl)ethynyl)-2,3,4,5-tetrahydro-1H-pyrido[4,3-b]indole], the inhibition at 1 µM on histamine receptor H1 was 6%; in test [1] it was 77%; in test [2], 98%; in test [3] (setting [8]), -4%; in test [4] it was 83%; in test [5], 95%. In addition, in test [6], the inhibition at 1 µM was 34%.
Turning to `COc1ccc2c(c1)c1c(n2/C=C(\C)c2ccncc2)CCN(C)C1` [Compound 246, (E)-8-methoxy-2-methyl-5-(2-(pyridin-4-yl)prop-1-enyl)-2,3,4,5-tetrahydro-1H-pyrido[4,3-b]indole], the inhibition at 1 µM stood at 7% at histamine receptor H1; 29% in test [1]; 97% in test [2]; 57% in test [3] (setting [7]); 88% in test [4]; 94% in test [5]. Besides, the inhibition at 1 µM in test [6] was 104%.
For `CN1CCc2c(c3ccc(Cl)cc3n2CC(C)(O)c2ccncc2)C1` (centres unmarked) [Compound 184, 1-(7-chloro-2-methyl-3,4-dihydro-1H-pyrido[4,3-b]indol-5(2H)-yl)-2-(pyridin-4-yl)propan-2-ol], the inhibition at 1 µM on histamine receptor H1 came out at 23%; in test [1], 57%; in test [2], 82%; in test [3] (setting [7]), 1%; in test [4], 48%; in test [5] it was 65%. In test [6], the inhibition at 1 µM turned out to be 31%.
Consider `CCC(O)(Cn1c2c(c3cc(C)ccc31)CN(C)CC2)c1ccncc1` (centres unmarked) [Compound 196, 1-(2,8-dimethyl-3,4-dihydro-1H-pyrido[4,3-b]indol-5(2H)-yl)-2-(pyridin-4-yl)butan-2-ol], for which the inhibition at 1 µM on histamine receptor H1 came to 19%; in test [3] (setting [7]), 9%. In addition, the inhibition at 0.1 µM is 36% in test [2], 12% in test [4], 8% in test [5] and 10% in test [6].
For the compound `CCN1CCc2c(c3ccccc3n2/C=C(\C)c2ccncc2)C1` [Compound 266, (E)-2-ethyl-5-(2-(pyridin-4-yl)prop-1-enyl)-2,3,4,5-tetrahydro-1H-pyrido[4,3-b]indole], the inhibition at 1 µM was -1% on histamine receptor H1 and 94% in test [3] (setting [7]). Also, the inhibition at 0.1 µM came out at 67% in test [2], 18% in test [4], 12% in test [5] and 81% in test [6].
On to `C/C(=C/n1c2c(c3cc(Cl)ccc31)CN(C)CC2)c1ccc(Cl)c(Cl)c1` [Compound 256, (Z)-8-chloro-5-(2-(3,4-dichlorophenyl)prop-1-enyl)-2-methyl-2,3,4,5-tetrahydro-1H-pyrido[4,3-b]indole], for which the inhibition at 1 µM on histamine receptor H1 was determined as 92%; in test [3] (setting [7]), 34%. Besides, the inhibition at 0.1 µM in test [2] was determined as 100%; in test [4] it was 85%; in test [5], 90%; in test [6], 96%.

The term inhibition denotes the relative decrease from the control value, in per cent.
